Results from patent publication US12472189B2, “Treatment and prevention of capillary malformation-arteriovenous malformation” (The Regents of University of Michigan, priority 2020, dated 2025).
Entries after “also recorded” stand apart in the source; their conditions may differ. Each block holds one molecule with its values, some of them ahead of it.

Assays:
B16 melanoma = assay: Tumor angiogenesis, B16 melanoma model in adult induced RASA1-deficient mice; format: in vivo, mouse; details: 13 days
Experimental: TM was administered to mice at 2 months of age (female mice for ID8 experiments and mice of either sex for B16 experiments). After 1 week, mice were injected s.c. in the flank with 1×10^6 ID8 cells or 0.75×10^6 B16F10 cells (provided by Weiping Zou, Michigan Medicine, Ann Arbor Michigan) suspended in 100 μl matrigel (Corning). In B16 experiments, 4PBA was administered to some mice at the same time as tumor and for each day thereafter (0.4 mg/g body weight per injection). ID8 and B16 tumors were harvested 6 weeks or 13 days later respectively and tumor weight and volume was determined as described (Kozak et al. Proc Natl Acad Sci USA. 2010; 107(46):19997-20002; incorporated by reference in its entirety). Tumors were fixed in 4% paraformaldehyde overnight and 5 μm sections were stained with Hoechst and antibodies against CD31, activated caspase 3 and collagen IV as above. Sections were viewed on a BX60 upright fluorescence microscope or a Leica SP5 X confocal microscope. BV density was assessed within a random 800 μm×800 μm region.

[1] = test system: induced RASA1-deficient mice (Rasa1 fl/fl Ub ert2cre embryos); assay: Developmental angiogenesis in embryos with TM-induced disruption of Rasa1, drug co-administered; details: for EC apoptosis (activated caspase 3) / EC export of collagen IV / deposition of collagen IV in vascular BM / blood vascular hemorrhage (and edema): Rasa1 fl/fl Ub ert2cre embryos, TM at E13.5 with drug i.p. to pregnant mice, assessed at E18.5; for vascular development / vascular phenotypes, drug administered alone: Rasa1 fl/fl and Rasa1 fl/fl Ub ert2cre embryos, drug from E13.5 in the absence of TM; for vascular development / vascular phenotypes, drug administered alone / Embryonic vascular phenotypes / Percentage embryos with phenotype (affected/total): harvest E18.5; for Embryonic vascular phenotypes / Percentage embryos with phenotype (affected/total): TM day E13.5 plus drug
Experimental: Pregnant mice were given 3 i.p. injections of TM (Sigma; 0.05 mg/g body weight per injection, dissolved in corn oil) on consecutive days. The MEK inhibitor, AZD6244 (Selleckchem; 0.05 mg/g body weight per injection), the PI3K inhibitor, PX-866 (Cayman chemical; 0.015 mg/g body weight per injection), the chemical chaperone, 4PBA (Sigma; 0.25 mg/g body weight per injection), and the 2OG dependent oxygenase inhibitors, EDHB and 2,4PDCA (Sigma; 0.1 mg/g body weight per injection) were injected i.p. into mice at the same time as TM and the day following the last TM injection for AZD6244 and PX-866 or for all subsequent days of gestation until harvest for 4PBA, EDHB and 2,4PDCA. […] Embryos were fixed in 3.75% formaldehyde overnight and embedded in paraffin. Five micrometer sections were dehydrated and antigen retrieval was performed with a Diva de-cloaking kit (Biocare Medical). […] Secondary antibodies used were species-specific anti-immunoglobulin donkey F(ab)2 fragments coupled to Alexa Fluor 488, 594 or 647 (Jackson Immunoresearch) and were incubated with tissues in PBS for 2 hours. Sections were stained with Hoechst (Invitrogen) to identify nuclei before mounting and viewing on a BX60 upright fluorescence microscope (Nikon) or a Leica SP5 X confocal microscope (Leica Microsystems).

[2] = test system: mouse models that express these mutants; details: mouse models expressing point mutant collagen IV variants; cited from earlier work
human and mouse EC = human and mouse EC in vitro; cited from earlier work
HUVEC = assay: RASA1 siRNA knockdown in HUVEC, intracellular collagen IV accumulation (immunofluorescence); format: cell-based, human; details: RASA1 siRNA-treated HUVEC, 2 mM 4PBA, 24 hours
Experimental: HUVEC from pooled donors (Lonza, CC-2519) were cultured in EBM™-2 Basal Medium (Lonza, CC-3156) supplemented with EGMm-2 SingleQuots™ Supplement Pack (Lonza, CC-4176). Cells were transfected with 50 nM RASA1 siRNA (5′-[…]-3′ (SEQ ID NO: 1), Invitrogen) using Lipofectamine RNAi MAX (Invitrogen) reagent according to the manufacturer's protocol. Stealth RNAi™ siRNA Negative Control Hi GC (Invitrogen) was used as control. Following transfection, HUVEC were recultured in the presence or absence of 2 mM 4PBA for 24 hours.
HUVECs were fixed with 4% paraformaldehyde in PBS for 30 minutes at room temperature washed in PBS, permeabilized with 0.2% Triton X-100, and blocked with 10% donkey serum for 1 hour. Cells were incubated with antibodies against collagen IV (1340-01, SouthemBiotech) and calnexin (PA5-34754, Thermo Fisher) overnight, followed by Alexa Fluor®488 or 594 conjugated secondary antibodies (Jackson ImmunoResearch) for 4 hours. Cells were stained with Hoechst to identify nuclei before mounting and viewing on a Leica SP5 X confocal microscope.

[3] = TM-treated Rasa1 fl/fl Ub ert2cre recipients, 4PBA daily from tumor injection
[4] = Rasa1 fl/fl littermates, Ert2Cre driver None

Structure (SMILES): O=C(O)CCCc1ccccc1 [4PBA, 4-phenylbutyric acid]
B16 growth, 4PBA administered alone (B16 melanoma; Rasa1 fl/fl and Rasa1 fl/fl Ub ert2cre mice not previously injected with TM, 4PBA daily): no influence | export of collagen IV from BEC and BV angiogenesis in B16 tumors (B16 melanoma; [3]): normal | growth of B16 cells (tumor weight and volume) (B16 melanoma; [3]): restored | B16 growth (B16 melanoma; TM-treated Rasa1 fl/fl control mice, 4PBA daily): no influence | EC apoptosis (activated caspase 3) [1]: completely rescued; also recorded: absence of BEC apoptosis | EC export of collagen IV / deposition of collagen IV in vascular BM [1]: completely rescued; also recorded: normal deposition of collagen IV in vascular BM | blood vascular hemorrhage (and edema) [1]: completely rescued; also recorded: absence of hemorrhage and edema | EC apoptosis (activated caspase 3) ([1]; listed as 4-phenylbutyric acid): rescued | EC export of collagen IV / deposition of collagen IV in vascular BM ([1]; listed as 4-phenylbutyric acid): rescued | vascular development / vascular phenotypes, drug administered alone [1]: no influence; also recorded: absence of vascular phenotypes | Embryonic vascular phenotypes [1, 4]: None | Percentage embryos with phenotype (affected/total) [1, 4]: 0 (0/5) Percentage | Embryonic vascular phenotypes ([1]; Rasa1 fl/fl, Ert2Cre driver Ub): None | Percentage embryos with phenotype (affected/total) ([1]; Rasa1 fl/fl, Ert2Cre driver Ub): 0 (0/7) Percentage | intracerebral hemorrhage [2]: reversed | blocked export of misfolded point mutant collagen IV variants (human and mouse EC): rescued | intracellular accumulation of collagen IV after RASA1 knockdown (HUVEC): rescue

Embryonic vascular phenotypes [1, 4]: None | Percentage embryos with phenotype (affected/total) [1, 4]: 0 (0/8) Percentage
Structure (SMILES): Cn1cnc2c(F)c(Nc3ccc(Br)cc3Cl)c(C(=O)NOCCO)cc21 [AZD6244]
EC export of collagen IV / deposition of collagen IV in vascular BM [1]: rescued; also recorded: normal deposition of collagen IV in vascular BM | blood vascular hemorrhage (and edema) [1]: prevented; also recorded: absence of hemorrhage and edema | vascular development / vascular phenotypes, drug administered alone [1]: did not induce any vascular abnormalities; also recorded: absence of vascular phenotypes | Embryonic vascular phenotypes ([1]; Rasa1 fl/fl, Ert2Cre driver Ub): None | Percentage embryos with phenotype (affected/total) ([1]; Rasa1 fl/fl, Ert2Cre driver Ub): 0 (0/7) Percentage

Structure (SMILES): C=CCN(/C=C1/C(=O)O[C@H](COC)[C@@]2(C)C1=C(O)C(=O)C1=C2[C@H](OC(C)=O)C[C@]2(C)C(=O)CC[C@@H]12)CC=C [PX-866]
EC apoptosis (activated caspase 3) [1]: unable to rescue | EC export of collagen IV / deposition of collagen IV in vascular BM [1]: unable to rescue | blood vascular hemorrhage (and edema) [1]: extensive cutaneous hemorrhage was evident

Structure (SMILES): CCOC(=O)c1ccc(O)c(O)c1 [EDHB]
EC apoptosis (activated caspase 3) [1]: completely rescued; also recorded: absence of BEC apoptosis | EC export of collagen IV / deposition of collagen IV in vascular BM [1]: completely rescued; also recorded: normal deposition of collagen IV in vascular BM | blood vascular hemorrhage (and edema) [1]: completely rescued; also recorded: absence of hemorrhage and edema | Embryonic vascular phenotypes ([1]; Rasa1 fl/fl, Ert2Cre driver Ub): None | Percentage embryos with phenotype (affected/total) ([1]; Rasa1 fl/fl, Ert2Cre driver Ub): 0 (0/5) Percentage

Embryonic vascular phenotypes [1, 4]: None | Percentage embryos with phenotype (affected/total) [1, 4]: 0 (0/6) Percentage
Structure (SMILES): O=C(O)c1ccnc(C(=O)O)c1 [2,4PDCA, 2,4 pyridinedicarboxylic acid]
EC apoptosis (activated caspase 3) [1]: absence of BEC apoptosis | EC export of collagen IV / deposition of collagen IV in vascular BM [1]: normal deposition of collagen IV in vascular BM | blood vascular hemorrhage (and edema) [1]: absence of hemorrhage and edema | Embryonic vascular phenotypes ([1]; Rasa1 fl/fl, Ert2Cre driver Ub): None | Percentage embryos with phenotype (affected/total) ([1]; Rasa1 fl/fl, Ert2Cre driver Ub): 0 (0/3) Percentage
